# According to patent US11207365B2, “Combined preparations of urinary acidifiers and crystallization inhibitors and application thereof for the treatment or prevention of phosphatic or calcium phosphate-induced renal lithiasis” (UNIVERSITAT DE LES ILLES BALEARS, priority 2014, dated 2021):
# Test: Induction time for the crystallization of calcium phosphate in artificial urine
# Conditions: for induction time t: 15 mM phosphate and 3 mM calcium solution in artificial urine (no magnesium); for delay in the induction time: 1 μM phytate versus solution without inhibitor
# Description: From a 15 mM phosphate ion and 3 mM calcium ion solution in artificial urine, the induction times for the crystallization of calcium phosphate have been calculated at different pH and phytate concentration. The artificial urine had no magnesium since it is shown that the magnesium ion is a calcium phosphate crystallization inhibitor. […] Thus, while at pH 6.75, the calcium phosphate solution (without inhibitor) takes 1 minute to crystallize, with 1 μM phytate it takes 2 minutes (the delay in the induction time at this pH value is 1 minute, for 1 μM phytate). However, when the pH decreases to 6.60, the calcium phosphate solution (without inhibitor) takes 6 minutes to crystallize, while with 1 μM phytate it takes 33 minutes (the delay in the induction time at this pH value is 27 minutes, for 1 μM phytate). Thus, for the same amount of inhibitor there is a significant increase of the crystallization time when the value of the pH of the solution decreases.
smiles,measurement,setting,value
"O=P(O)(O)O[C@H]1[C@H](OP(=O)(O)O)[C@@H](OP(=O)(O)O)[C@H](OP(=O)(O)O)[C@@H](OP(=O)(O)O)[C@H]1OP(=O)(O)O [phytate, myo-inositol-hexaphosphate]",induction time t,"0.5 μM phytate, pH = 6.60",12 min
same,induction time t,"0.5 μM phytate, pH = 6.65",4 min
same,induction time t,"0.5 μM phytate, pH = 6.75",1 min
same,delay in the induction time,pH 6.60,27 min
same,delay in the induction time,pH 6.75,1 min
same,induction time t,"1.0 μM phytate, pH = 6.60",33 min
same,induction time t,"1.0 μM phytate, pH = 6.65",6 min
same,induction time t,"1.0 μM phytate, pH = 6.75",2 min
